Experimental data reported in paper PMC12892976, “Alkylation-based optimization of antifungal FPPS inhibitors yields a potent, broad-spectrum lipophilic zoledronate derivative” (mBio, 2025).
Values after ≈ are worked out from the molar mass of the structure shown.

Tests used:
Cryptococcus tetragattii = experiment: MIC broth microdilution (CLSI); format: cell-based; settings: Cryptococcus tetragattii WM779
Method: (§2) Antifungal susceptibility was determined by broth microdilution according to the CLSI guidelines described in M27-Ed4 ([16]).

[1] = tested on: Cryptococcus deneoformans; experiment: MIC broth microdilution (CLSI); format: cell-based; settings: Cryptococcus deneoformans JEC21
Method: as §2

Fusarium oxysporum = experiment: MIC broth microdilution (CLSI); format: cell-based; settings: Fusarium oxysporum 07-200-3012
Method: as §2

Pichia kudriavzevii [2] = experiment: MIC broth microdilution (CLSI); format: cell-based; settings: Pichia kudriavzavii ATCC 6258
Method: Antifungal susceptibility was determined by broth microdilution according to the CLSI guidelines described in M27-Ed4 ([16]). […] MFC was determined by back-plating drug-treated cultures from MIC broths onto SDA plates. The MFC was defined as the lowest concentration from which no colonies could be cultured.

Aspergillus lentulus = experiment: MIC broth microdilution (CLSI); format: cell-based; settings: Aspergillus lentulus DTO 341-G7
Method: as §2

Epidermophyton floccosum = experiment: MIC broth microdilution (CLSI); format: cell-based; settings: Epidermophyon floccosum R-113
Method: as §2

Paraphyton cookei [3] = experiment: MIC broth microdilution (CLSI); format: cell-based; settings: Paraphyton cookei R-639
Method: as §2

Nannizzia gypsea = experiment: MIC broth microdilution (CLSI); format: cell-based; settings: Nannizzia gypsea R-131
Method: as §2

[4] = tested on: Trichophyton interdigitale; experiment: MIC broth microdilution (CLSI); format: cell-based; settings: Trichophyton interdigitale R-234
Method: as §2

Rhizopus oryzae = experiment: checkerboard drug interaction (FICI, MICc); format: cell-based;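 also: simplified diagonal checkerboard screen pairing antifungals with FPPS inhibitors, FICI calculated under the Loewe additivity model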
Method: (§3) Drug interactions between antifungals and FPPS inhibitors were investigated using a simplified checkerboard diagonal screening method ([45]). […] FICIs were determined according to the Loewe additivity model ([17]).

[5] = tested on: Cryptococcus bacillisporus; experiment: checkerboard drug interaction (FICI, MICc); format: cell-based;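 also: interaction of antifungals with FPPS inhibitors assessed by a simplified diagonal checkerboard screen, with FICI computed under the Loewe additivity model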
Method: as §3

[6] = tested on: Cryptococcus deneoformans; experiment: checkerboard drug interaction (FICI, MICc); format: cell-based;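 also: simplified diagonal checkerboard screen pairing antifungals with FPPS inhibitors, FICI calculated under the Loewe additivity model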
Method: as §3

Pichia kudriavzevii [7] = experiment: checkerboard drug interaction (FICI, MICc); format: cell-based;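 also: antifungal plus FPPS inhibitor interactions tested in a simplified diagonal checkerboard screen, with FICI calculated under the Loewe additivity model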
Method: as §3

Candida tropicalis = experiment: checkerboard drug interaction (FICI, MICc); format: cell-based;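 also: simplified diagonal checkerboard screen of antifungal plus FPPS inhibitor combinations, with FICI computed by the Loewe additivity model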
Method: as §3

Candida dubliniensis = experiment: checkerboard drug interaction (FICI, MICc); format: cell-based;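 also: simplified diagonal checkerboard screen pairing antifungals with FPPS inhibitors, FICI calculated under the Loewe additivity model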
Method: as §3

Aspergillus terreus = experiment: checkerboard drug interaction (FICI, MICc); format: cell-based;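 also: simplified diagonal checkerboard screen pairing antifungals with FPPS inhibitors, FICI derived by the Loewe additivity model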
Method: as §3

Aspergillus udagawae = experiment: checkerboard drug interaction (FICI, MICc); format: cell-based;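 also: simplified diagonal checkerboard screen pairing antifungals with FPPS inhibitors, FICI calculated using the Loewe additivity model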
Method: as §3

Aspergillus felis = experiment: checkerboard drug interaction (FICI, MICc); format: cell-based;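 also: simplified diagonal checkerboard screen pairing antifungals with FPPS inhibitors, FICI calculated under the Loewe additivity model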
Method: as §3

Fusarium solani = experiment: MIC broth microdilution (CLSI); settings: Fusarium solani 04-16-056-1862
Method: as §2

Microsporum canis = experiment: MIC broth microdilution (CLSI); settings: Microsporum canis R-232
Method: as §2

Trichophyton tonsurans = experiment: MIC broth microdilution (CLSI); settings: Trichophyton tonsurans R-168
Method: as §2

Trichophyton soudanense = experiment: MIC broth microdilution (CLSI); settings: Trichophyton soudanense R-167
Method: as §2

Paraphyton cookei [8] = experiment: checkerboard drug interaction (FICI, MICc);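 also: simplified diagonal checkerboard screen pairing an antifungal with an FPPS inhibitor, FICI computed under the Loewe additivity model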
Method: as §3

[9] = tested on: Saccharomyces cerevisiae biofilms; experiment: biofilm XTT reduction assay (SIC80, SFICI); format: cell-based; settings: FLC:10-ZOL combination, Saccharomyces cerevisiae
Method: (§4) Biofilms of Cryptococcus were seeded in DMEM, and all other species were seeded in RPMI-1640.

[10] = tested on: Aspergillus flavus biofilms; experiment: biofilm XTT reduction assay (SIC80, SFICI); format: cell-based
Source text: (§1) […]. […] […].

[11] = tested on: Aspergillus fumigatus biofilms; experiment: biofilm XTT reduction assay (SIC80, SFICI); format: cell-based
Source text: as §1

[12] = tested on: Candida glabrata biofilms; experiment: biofilm XTT reduction assay (SIC80, SFICI); format: cell-based
Source text: as §1

[13] = tested on: Trichophyton rubrum biofilms; experiment: biofilm XTT reduction assay (SIC80, SFICI); format: cell-based; settings: biofilm, agent alone; Trichophyton rubrum 213
Method: as §4

[14] = tested on: Candida albicans biofilms; experiment: biofilm XTT reduction assay (SIC80, SFICI); settings: agent alone, Candida albicans SC5314
Method: as §4

SMILES	MIC / MEC (Cryptococcus tetragattii) [µg/mL]	MIC / MEC [1] [µg/mL]	MIC / MEC (Pichia kudriavzevii [2]) [µg/mL]	antifungal MICc (Rhizopus oryzae; in combination with 10-ZOL)	antifungal MICc ([5]; in combination with 10-ZOL)	antifungal MICc ([5]; in combination with ZOL)	antifungal MICc ([6]; in combination with 10-ZOL)	antifungal MICc ([6]; in combination with ZOL)	antifungal MICc (Pichia kudriavzevii [7]; in combination with 10-ZOL)	antifungal MICc (Pichia kudriavzevii [7]; in combination with ZOL)	antifungal MICc (Candida tropicalis; in combination with 10-ZOL)	antifungal MICc (Candida tropicalis; in combination with ZOL)	antifungal MICc (Candida dubliniensis; in combination with 10-ZOL)	antifungal MICc (Candida dubliniensis; in combination with ZOL)	antifungal MICc (Aspergillus terreus; in combination with 10-ZOL)	antifungal MICc (Aspergillus terreus; in combination with ZOL)	antifungal MICc (Aspergillus udagawae; in combination with 10-ZOL)	antifungal MICc (Aspergillus felis; in combination with 10-ZOL)	other results
C[C@@H](c1ncncc1F)[C@](O)(Cn1cncn1)c1ccc(F)cc1F [VOR]	0.13 (≈ 0.372 µM)	0.06 (≈ 0.172 µM)	0.5 (≈ 1.43 µM)	8	0.03	0.125	0.063	0.0625	0.5	1	0.032	0.0625	0.033	0.0125	0.25	0.125	0.03	0.5	MIC / MEC (Fusarium oxysporum): 4 µg/mL (≈ 11.5 µM); MIC / MEC (Aspergillus lentulus): 4 µg/mL (≈ 11.5 µM); MIC / MEC (Epidermophyton floccosum): 0.25 µg/mL (≈ 0.716 µM); MIC / MEC (Paraphyton cookei [3]): 0.5 µg/mL (≈ 1.43 µM); MIC / MEC (Nannizzia gypsea): 0.25 µg/mL (≈ 0.716 µM); MIC / MEC [4]: 0.25 µg/mL (≈ 0.716 µM); antifungal MICc (Rhizopus oryzae; in combination with ZOL): 8; antifungal MICc (Aspergillus udagawae; in combination with ZOL): 0.5; antifungal MICc (Aspergillus felis; in combination with ZOL): 0.5; MIC / MEC (Fusarium solani): 1 µg/mL (≈ 2.86 µM); MIC / MEC (Microsporum canis): 0.03 µg/mL (≈ 0.0859 µM); MIC / MEC (Trichophyton tonsurans): 0.13 µg/mL (≈ 0.372 µM); MIC / MEC (Trichophyton soudanense): 0.13 µg/mL (≈ 0.372 µM); antifungal MICc (Paraphyton cookei [8]; in combination with ZOL): 0.125
OC(Cn1cncn1)(Cn1cncn1)c1ccc(F)cc1F [FLC, fluconazole]	4 (≈ 13.1 µM)	0.5 (≈ 1.63 µM)	32 (≈ 104 µM)	32	1	0.125	0.25	0.125	16	8	1	2	0.125	0.03125	2	8	4	4	SICc [9]: 64 µg/mL; SICc ([10]; FLC:10-ZOL combination, Aspergillus flavus): 512 µg/mL; SIC80 ([10]; agent alone, Aspergillus flavus ATCC 204304): 1,024 µg/mL; SICc ([11]; FLC:10-ZOL combination, Aspergillus fumigatus): 512 µg/mL; SIC80 ([11]; agent alone, Aspergillus fumigatus ATCC 204305): >2,048 µg/mL; SICc ([12]; FLC:10-ZOL combination, Candida glabrata): 512 µg/mL; SIC80 ([12]; agent alone, Candida glabrata CBS138): >2,048 µg/mL; SIC80 [13]: 2,048 µg/mL; antifungal MICc (Paraphyton cookei [8]; in combination with 10-ZOL): 8; SIC80 [14]: 512 µg/mL
